# Results from patent US9409884B2 (Rigel Pharmaceuticals, Inc., priority 2012, dated 2016).
# Molecular target: AMPK
# Experiment: AMPK activation, enzyme-linked immunosorbent assay
# Format: biochemical
# Details: Table 8, compounds of Table 1
# Summary of the method: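 AMPK activation by test compounds was measured by enzyme-linked immunosorbent assay.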
row,EC50 [nM],Structure (SMILES)
1,100 to 500,"N#Cc1ccc(CN2CC(NC(=O)c3ccc(OC4CCN(c5ccc(C(F)(F)F)cc5)CC4)cn3)C2)cc1 [Compound 1-41, N-(1-(4-cyanobenzyl)azetidin-3-yl)-5-(1-(4-(trifluoromethyl)phenyl)piperidin-4-yloxy)picolinamide]"
2,100 to 500,"N#Cc1ccc(N2CCC(Oc3ccc(C(=O)NC4CCN(Cc5cccnc5)CC4)nc3)CC2)cc1 [Compound 1-6, N-(1-(pyridin-3-ylmethyl)piperidin-4-yl)-5-(1-(4-cyanophenyl)piperidin-4-yloxy)picolinamide]"
3,100 to 500,"CC(C)(C)OC(=O)N1CCC(NC(=O)c2ccc(OC3CCN(c4ccc(C(F)(F)F)cc4)CC3)nc2)CC1 [Compound 1-9, tert-butyl 4-(6-(1-(4-(trifluoromethyl)phenyl)piperidin-4-yloxy)nicotinamido) piperidine-1-carboxylate]"
4,> 10000,"O=C(N[C@H]1CCNC1)c1cc2cc(OC3CCN(Cc4ccc(Cl)cc4)CC3)ccc2o1 [Compound 1-128, (S)-5-(1-(4-chlorobenzyl)piperidin-4-yloxy)-N-(pyrrolidin-3-yl)benzofuran-2-carboxamide]"
5,1000 to 5000,"CC(C)(C)OC(=O)N1CC[C@@H](NC(=O)c2cc3cc(OC4CCN(c5ccc(C(F)(F)F)cc5)CC4)ccc3o2)C1 [Compound 1-120, (R)-tert-butyl 3-(5-(1-(4-(trifluoromethyl)phenyl)piperidin-4-yloxy)benzofuran-2-carboxamido) pyrrolidine-1-carboxylate]"
6,1000 to 5000,"O=C(NC1CCN(Cc2cn(C(c3ccccc3)(c3ccccc3)c3ccccc3)cn2)CC1)c1ccc(OC2CCN(c3ccc(C(F)(F)F)cc3)CC2)cn1 [Compound 1-47, 5-(1-(4-(trifluoromethyl)phenyl)piperidin-4-yloxy)-N-(1-((1-trityl-1H-imidazol-4-yl)methyl)piperidin-4-yl)picolinamide]"
7,100 to 500,"O=C(NC1CCN(Cc2cncnc2)CC1)c1ccc(OC2CCN(c3ccc(C(F)(F)F)cc3)CC2)cn1 [Compound 1-44, N-(1-(pyrimidin-5-ylmethyl)piperidin-4-yl)-5-(1-(4-(trifluoromethyl)phenyl)piperidin-4-yloxy)picolinamide]"
8,500 to 1000,"N#Cc1ccc(CN2CC[C@@H](NC(=O)c3ccc(OC4CCN(c5ccc(C(F)(F)F)cc5)CC4)cn3)C2)cc1 [Compound 1-33, (R)-N-(1-(4-cyanobenzyl)pyrrolidin-3-yl)-5-(1-(4-(trifluoromethyl)phenyl)piperidin-4-yloxy) picolinamide]"
9,1000 to 5000,"O=C(N[C@@H]1CCN(C(=O)c2ccncc2)C1)c1cc2cc(OC3CCN(c4ccc(C(F)(F)F)cc4)CC3)ccc2o1 [Compound 1-125, (R)-N-(1-isonicotinoylpyrrolidin-3-yl)-5-(1-(4-(trifluoromethyl)phenyl)piperidin-4-yloxy)benzofuran-2-carboxamide]"

# Same assay, conditions: Table 9, compounds of Table 2
row,EC50 [nM],Structure (SMILES)
1,> 100000,"O=C(NC1CCN(Cc2ccccc2)CC1)c1ccc2[nH]c3c(c2c1)CN(S(=O)(=O)c1ccc(C(F)(F)F)cc1)CC3 [Compound 2-19, N-(1-benzylpiperidin-4-yl)-2-(4-(trifluoromethyl)phenylsulfonyl)-2,3,4,5-tetrahydro-1H-pyrido[4,3-b]indole-8-carboxamide]"
2,< 500,"O=C(NC1CCN(Cc2ccncc2)CC1)c1ccc2[nH]c3c(c2c1)CN(Cc1ccc(C(F)(F)F)cc1)CC3 [Compound 2-50, N-(1-(pyridin-4-ylmethyl)piperidin-4-yl)-2-(4-(trifluoromethyl)benzyl)-2,3,4,5-tetrahydro-1H-pyrido[4,3-b]indole-8-carboxamide]"
3,< 500,"O=C(NC1CCN(CCc2ccccc2)CC1)c1ccc2[nH]c3c(c2c1)CN(Cc1ccc(C(F)(F)F)cc1)CC3 [Compound 2-14, N-(1-phenethylpiperidin-4-yl)-2-(4-(trifluoromethyl)benzyl)-2,3,4,5-tetrahydro-1H-pyrido[4,3-b]indole-8-carboxamide]"

# Same assay, conditions: Table 10, compounds of Table 3
row,EC50 [nM],Structure (SMILES)
1,< 100,"N#Cc1ccc(CN2CCC(NC(=O)c3ccc4c(c3)CN(Cc3ccc(C#N)cc3)CC4)CC2)cc1 [Compound 3-37, 2-(4-cyanobenzyl)-N-(1-(4-cyanobenzyl)piperidin-4-yl)-1,2,3,4-tetrahydroisoquinoline-7-carboxamide]"
2,100 to 1000,"O=C(c1ccncc1)N1CC2CC1CN2C(=O)c1nc2ccc(OC3CCN(c4ccc(C(F)(F)F)cc4)CC3)cc2o1 (stereo not shown) [Compound 3-11, (5-isonicotinoyl-2,5-diazabicyclo[2.2.1]heptan-2-yl)(6-(1-(4-(trifluoromethyl)phenyl)piperidin-4-yloxy)benzo[d]oxazol-2-yl)methanone]"

# Same assay, conditions: Table 11, compounds of Table 4
row,EC50 [nM],Structure (SMILES)
1,1000 to 5000,"O=C(NC1CCN(Cc2ccc(C(F)(F)F)cc2)C1)c1ccc(C(=O)N2CCN(c3ccc(Cl)cc3)CC2)cn1 (stereo not shown) [Compound 4-8, 5-(4-(4-chlorophenyl)piperazine-1-carbonyl)-N-(1-(4-(trifluoromethyl)benzyl)pyrrolidin-3-yl)picolinamide]"

# Same assay, conditions: Table 12, compounds of Table 5
row,EC50 [nM],Structure (SMILES)
1,< 1000,"N#Cc1ccc(N2CCC(Oc3ccc(C(=O)NC4CCN(Cc5ccccc5)CC4)c(Cl)c3)CC2)cc1 [Compound 5-49, N-(1-benzylpiperidin-4-yl)-2-chloro-4-(1-(4-cyanophenyl)piperidin-4-yloxy)benzamide]"
2,< 1000,"O=C(NC1CCN(Cc2ccccc2)CC1)c1cc(Cl)c(OC2CCN(Cc3ccc(Cl)cc3)CC2)c(Cl)c1 [Compound 5-75, N-(1-benzylpiperidin-4-yl)-3,5-dichloro-4-(1-(4-chlorobenzyl)piperidin-4-yloxy)benzamide]"
3,< 1000,"CC(C)(C)OC(=O)N1CCC(NC(=O)c2ccc(OC3CCN(c4ccc(C(F)(F)F)cc4)CC3)c(F)c2)CC1 [Compound 5-26, tert-butyl 4-(3-fluoro-4-(1-(4-(trifluoromethyl)phenyl)piperidin-4-yloxy)benzamido)piperidine-1-carboxylate]"
4,20000 to 50000,"O=C(c1ccc(OC2CCN(Cc3ccccc3)CC2)cc1)N1CCN(c2ccccc2)CC1 [Compound 5-103, (4-(1-benzylpiperidin-4-yloxy)phenyl)(4-phenylpiperazin-l-yl)methanone]"
5,< 1000,"CC(C)S(=O)(=O)N1CCC(NC(=O)c2ccc(OC3CCN(c4ccc(C(F)(F)F)cc4)CC3)c(F)c2)CC1 [Compound 5-34, 3-fluoro-N-(1-(isopropylsulfonyl)piperidin-4-yl)-4-(1-(4-(trifluoromethyl)phenyl)piperidin-4-yloxy)benzamide]"

# Same assay, conditions: Table 13, compounds of Table 6
row,EC50 [nM],Structure (SMILES)
1,< 100,"N#Cc1ccc(CN2CCC(NC(=O)c3cc4cc(C(=O)NC5CCN(c6ccc(C#N)cc6)CC5)ccc4o3)CC2)cc1 [Compound 6-90, N2-(1-(4-cyanobenzyl)piperidin-4-yl)-N5-(1-(4-cyanophenyl)piperidin-4-yl)benzofuran-2,5-dicarboxamide]"
2,< 100,"N#Cc1ccc(CN2CCC(NC(=O)c3cc4cc(C(=O)N5CCN(Cc6ccc(OC(F)(F)F)cc6)CC5)ccc4o3)CC2)cc1 [Compound 6-81, N-(1-(4-cyanobenzyl)piperidin-4-yl)-5-(4-(4-(trifluoromethoxy)benzyl)piperazine-1-carbonyl) benzofuran-2-carboxamide]"
3,100 to 1000,"CS(=O)(=O)c1ccc(CN2CCN(C(=O)c3ccc4oc(C(=O)NC5CCN(Cc6ccc(C#N)cc6)CC5)cc4c3)CC2)cc1OC(F)(F)F [Compound 6-111, N-(1-(4-cyanobenzyl)piperidin-4-yl)-5-(4-(4-(methylsulfonyl)-3-(trifluoromethoxy)benzyl)piperazine-1-carbonyl) benzofuran-2-carboxamide]"
4,< 100,"CS(=O)(=O)c1ccc(N2CCC(C(=O)Nc3ccc4oc(C(=O)NC5CCN(Cc6ccc(C#N)cc6)CC5)cc4c3)CC2)cc1 [Compound 6-84, N-(2-(1-(4-cyanobenzyl)piperidin-4-ylcarbamoyl)benzofuran-5-yl)-1-(4-(methylsulfonyl)phenyl) piperidine-4-carboxamide]"
5,< 100,"CS(=O)(=O)c1ccc(CN2CCN(C(=O)c3ccc4cc(C(=O)Nc5ccc(Oc6ccc(C#N)cc6)nc5)oc4c3)CC2)cc1 [Compound 6-8, N-(6-(4-cyanophenoxy)pyridin-3-yl)-6-(4-(4-(methylsulfonyl)benzyl)piperazine-1-carbonyl) benzofuran-2-carboxamide]"
6,1000 to 10000,"N#Cc1ccc(CN2CCC(NC(=O)c3cc4cc(C(=O)N5CCN(c6cc(C(F)(F)F)cc(C(F)(F)F)c6)CC5)ccc4o3)CC2)cc1 [Compound 6-117, 5-(4-(3,5-bis(trifluoromethyl)phenyl)piperazine-1-carbonyl)-N-(1-(4-cyanobenzyl)piperidin-4-yl)benzofuran-2-carboxamide]"

# Same assay, conditions: Table 14, compounds of Table 7
row,EC50 [nM],Structure (SMILES)
1,< 1000,"Cc1nc2cc(OC3CCN(C(=O)c4ccc(C(=O)NC5CCN(Cc6ccc(C#N)cc6)CC5)cn4)CC3)ccc2s1 [Compound 7-22, N-(1-(4-cyanobenzyl)piperidin-4-yl)-6-(4-(2-methylbenzo[d]thiazol-5-yloxy)piperidine-1-carbonyl)nicotinamide]"
2,1000 to 10000,"Cc1cc(OC2CCN(C(=O)c3ccc(C(=O)NC4CCN(Cc5ccc(OC(F)(F)F)cc5)CC4)cn3)CC2)ccc1S(C)(=O)=O [Compound 7-14, 6-(4-(3-methyl-4-(methylsulfonyl)phenoxy)piperidine-1-carbonyl)-N-(1-(4-(trifluoromethoxy)benzyl)piperidin-4-yl)nicotinamide]"
3,1000 to 10000,"CC(=O)c1ccc(Oc2ccc(NC(=O)c3ccc(C(=O)N4CCN(Cc5ccc(S(=O)(=O)N6CCCC6)cc5)CC4)nc3)cn2)cc1 [Compound 7-83, N-(6-(4-acetylphenoxy)pyridin-3-yl)-6-(4-(4-(pyrrolidin-1-ylsulfonyl)benzyl)piperazine-1-carbonyl)nicotinamide]"
4,< 1000,"COc1ccc(C(=O)C2CCN(C(=O)c3ccc(C(=O)NC4CCN(Cc5ccc(OC)c(F)c5)CC4(C)C)cn3)CC2)cc1 (stereo not shown) [Compound 7-95, N-(1-(3-fluoro-4-methoxybenzyl)-3,3-dimethylpiperidin-4-yl)-6-(4-(4-methoxybenzoyl)piperidine-1-carbonyl)nicotinamide]"
5,< 1000,"COc1ccc(C(=O)C2CCN(C(=O)c3ccc(C(=O)NC4CCN(Cc5cccc(C(F)(F)F)c5)C[C@@H]4F)cn3)CC2)cc1 (stereo partly drawn) [Compound 7-34, N-((3,4-trans)-3-fluoro-1-(3-(trifluoromethyl)benzyl)piperidin-4-yl)-6-(4-(4-methoxybenzoyl)piperidine-1-carbonyl)nicotinamide]"
